Data from US20090247644A1, “MEMANTINE FORMULATIONS” (FOREST LABORATORIES HOLDINGS LIMITED, priority 2008, published 2009).
Structures can show the parent of a compound that is named as a salt.

How the values were obtained:
Type in all cases: physicochemical
[1] = Flowability, Jenike and Johanson Sifting Segregation tester (time for 200 g to fall through hopper orifice); conditions: 200 g material, hydrochloride
Description: The flowability of the equant-shaped crystals of memantine was measured using a Jenike and Johanson […] Segregation tester (Jenike and Johanson, Tyngsboro, Mass.). The time taken for 200 g of material to fall through the circular orifice of the hopper was measured. Two different hoppers were used: a shallow angle cone (Hopper A, 35° from horizontal) and a steep angle cone (Hopper B, 75° from horizontal). […] See, ASTM Standard D6941-03, and A. Alexander et al., Pharmaceutical Technology, Yearbook 2000, pp. 6-21.

[2] = Angle of repose, Hosakawa Micron powder tester; conditions: hydrochloride
Description: For pharmaceutical powders, a lower angle of repose value indicates better flow characteristics. The angle of repose was measured using a Hosakawa Micron powder tester, Model PT-N (Hosokawa Micron Powder systems, Summit, N.J.) using the instructions provided by the vendor. Also see Pharmaceutical Dosage Forms, Tablets, Volume 1, Herbert A. Lieberman, Leon Lachman, Joseph B. Schwartz, 1989, 2nd Ed.

[3] = Bulk density and tap density, Varian Tapped Density tester; conditions: hydrochloride
Description: Bulk Density and Apparent Density after Tamping (Tap Density)
The bulk density and apparent density were measured using a Varian Tapped Density tester (Varian Inc.,) using the instructions provided by the vendor. Also see USP 29 (Tap-Bulk-Density).

[4] = Particle size distribution by laser diffraction; conditions: equant: Helos BF with Rodos; needle: Mastersizer 2000; hydrochloride
Description: The particle size distribution (average d90, d50 and d10 values) of the equant-shaped crystals of memantine was measured by Laser Diffraction technique using a Helos BF with Rodos instrument (Sympatec Inc, Lawrenceville, N.J.). The particle size distribution of the needle-shaped crystals of memantine was measured using a Mastersizer 2000 instrument (Malvern Instruments Limited, Worcestershire, UK).

[5] = Aspect ratio by scanning electron microscopy; conditions: ratio of maximum length to minimum width; hydrochloride
Text: The aspect ratio refers to the ratio of the maximum length of a crystal to its minimum width. At an aspect ratio of 1, a crystal has an isometric crystal habit. With the aspect ratio decreasing below 1, the crystal habit becomes more and more plate-like. In contrast, when the aspect ratio increases more and more above 1, the crystal approaches a needle-like crystal habit. In accordance with the present invention, cubic-shaped crystals of memantine hydrochloride have an aspect ratio of preferably below about 5, such as, below about 3 (3.0), e.g., below about 2 (2.0). The lower limit of the aspect ratio is not critical. The aspect ratio is determined by means of scanning electron microscopy (SEM). The sample is spread onto a pure aluminum support and subsequently sputter-coated with a thin layer of Pd/Au (thickness in the nanometer range; sputter coater SCD 030 (Balzers)). Using a JSM 6400 Scanning Electron Microscope (JEOL, Japan) at an acceleration voltage of 20 keV and a working distance of 15 mm, SEM images are taken at 150-fold magnification. Electronic filtering and thresholding is used to improve the separation of particles in binary images from the background. For image analysis, ANALYSIS software version 5.0 (SIS, Muenster, Germany) is used. […]

[6] = Hopper A (shallow angle cone, 35° from horizontal)
[7] = Hopper B (steep angle cone, 75° from horizontal)

SMILES	Flowability [1, 6]	Flowability ([1]; Hopper A (shallow angle cone, 35° from horizontal), listed as equant-shaped crystals)	Flowability [1, 7]	Flowability ([1]; Hopper B (steep angle cone, 75° from horizontal), listed as equant-shaped crystals)	Angle of Repose [2]	Bulk Density [3]	Compressibility Index [3]	Tap Density [3]	PSD d10 [4]	PSD d50 [4]	PSD d90 [4]	Aspect Ratio [5]	Flowability ([1]; Hopper A (shallow angle cone, 35° from horizontal), listed as needle-shaped crystals)	Flowability ([1]; Hopper B (steep angle cone, 75° from horizontal), listed as needle-shaped crystals)
CC12CC3CC(C)(C1)CC(N)(C3)C2 [Equant-shaped crystals of Memantine HCl, memantine hydrochloride]	38.3 g/s	about 38 g/s	13.6 g/s	about 14 g/s	43.1 °	0.51 g/cc	16	0.61 g/cc	10 μm	205 μm	376 μm	1.6	–	–
CC12CC3CC(C)(C1)CC(N)(C3)C2 [Needle-shaped crystals of Memantine HCl, memantine hydrochloride]	Does not flow	–	Does not flow	–	66.2 °	0.30 g/cc	40	0.50 g/cc	18.8 μm	113.8 μm	1229.4 μm	11.4	do not flow	do not flow
